Results published in patent US12636309B2, “Storage stable formulations of sulfated glycosaminoglycans and fragments derived therefrom for the treatment of pain and other medical conditions” (ADORA ANIMAL HEALTH CORPORATION, priority 2022, dated 2026).
Values belong to the substance of their own block, whether it stands above or below them.

Experiments:
[1] = Electrophoresis of polyanionic property on cellulose acetate membrane; assay type: physicochemical; settings: 0.2 N hydrochloric acid, about 65 mA for 65 minutes; for DISTANCE (CM): electrophoretic migration from cathode end, toluidine blue stain
Protocol: The unique polyanionic property of polysulfated glycosaminoglycan (PSGAG) is determined by electrophoresis. A 70 mm cellulose acetate (CA) membrane, saturated with 0.2 N hydrochloric acid is suspended with contact between the cathode and anode of an electrophoresis chamber. A test solution of PSGA G containing about 1 microgram of PSGAG is applied to the cathode end of the strip. A current of about 65 mA is applied for 65 minutes. The CA membrane is removed from the tank, then stained with a 0.1% toluidine blue solution for 5 minutes. The CA membrane is rinsed with a sufficient quantity of water to remove the excess toluidine blue. On the strip, PSGAG appears as only one violet-blue spot at a distance of approximately 3 cm from its starting point.
The cathode is the negative terminal of the electrophoresis chamber. Anionic compounds, such as PSGAG, under an applied current will migrate towards the chamber's anode (i.e., its positive terminal). The polyanionic property of PSGAG was compared to hyaluronic acid, chondroitin sulfate A, chondroitin sulfate B (dermatan sulfate), chondroitin sulfate C, heparin sulfate and keratan sulfate using electrophoresis.

[2] = rabbits, IM injection; incl. articular cartilage, synovial fluid, kidneys, brain, liver, skin, heart; cited from earlier work
serine proteinases = settings: in vitro; cited from earlier work
[3] = tested on: Prostaglandin E2 (PGE2) synthesis; settings: cited from earlier work
elastase = settings: cited from earlier work
stromelysin = stromelysin (Homo sapiens, UniProt P08254); settings: cited from earlier work
metalloproteases = settings: cited from earlier work
cathepsin B1 = cathepsin B1 (Homo sapiens, UniProt P07858); settings: cited from earlier work
hyaluronidases = settings: cited from earlier work
human chondrocytes = settings: cultured human chondrocytes; cited from earlier work
rabbit chondrocytes = settings: cultured rabbit chondrocytes; cited from earlier work
synovial membrane cells = synovial membrane cells in vitro; cited from earlier work

stromelysin, sequence (P08254 100-477): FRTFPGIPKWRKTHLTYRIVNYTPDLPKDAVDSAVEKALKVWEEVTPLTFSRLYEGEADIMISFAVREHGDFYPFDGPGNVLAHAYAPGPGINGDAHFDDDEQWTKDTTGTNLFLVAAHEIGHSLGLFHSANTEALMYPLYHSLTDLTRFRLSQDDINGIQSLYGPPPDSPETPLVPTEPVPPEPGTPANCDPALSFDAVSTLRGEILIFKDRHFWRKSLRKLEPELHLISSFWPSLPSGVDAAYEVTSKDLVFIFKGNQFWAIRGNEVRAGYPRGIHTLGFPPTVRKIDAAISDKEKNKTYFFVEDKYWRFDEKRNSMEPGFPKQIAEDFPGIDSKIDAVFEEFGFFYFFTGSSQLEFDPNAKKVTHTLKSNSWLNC

Substance: chondroitin sulfate A
DISTANCE (CM) [1]: 2.1 ± 0.0 (n = 2) CM

Substance: chondroitin sulfate C
DISTANCE (CM) [1]: 2.0 ± 0.3 (n = 2) CM

Substance: hyaluronic acid
DISTANCE (CM) [1]: 1.1 ± 0.1 (n = 2) CM

Substance: keratan sulfate [Keratin Sulfate]
DISTANCE (CM) [1]: 2.5 ± 0.1 (n = 2) CM

Now from value to substance, other results behind:

DISTANCE (CM) [1]: 1.7 ± 0.0 (n = 2) CM
Substance: chondroitin sulfate B (dermatan sulfate)

DISTANCE (CM) [1]: 2.3 ± 0.0 (n = 2) CM
Substance: heparin sulfate

distance of the violet-blue spot from its starting point [1]: approximately 3 cm
DISTANCE (CM) [1]: 3.1 ± 0.3 (n = 12) CM
Substance: polysulfated glycosaminoglycan [PSGAG]
tissue distribution [2]: distributed to all tissues studied
inhibition of serine proteinases (serine proteinases): significantly inhibit
inhibition of Prostaglandin E2 (PGE2) synthesis [3]: inhibitor
inhibition of elastase (elastase): inhibit
inhibition of stromelysin (stromelysin): inhibit
inhibition of metalloproteases (metalloproteases): inhibit
inhibition of cathepsin B1 (cathepsin B1): inhibit
inhibition of hyaluronidases (hyaluronidases): inhibit
synthesis of proteoglycan and hyaluronic acid (human chondrocytes): increased synthesis
synthesis of proteoglycan and hyaluronic acid (rabbit chondrocytes): increased synthesis
effect on hyaluronic acid synthesis (synovial membrane cells): specific potentiating effect
